# In article PMC4535312 (ChemMedChem, 2014):
# Key:
# [1] = system: A/California/04/2009 (H1N1); type: cell-based, influenza
# [2] = system: A/Brisbane/10/2007 (H3N2); type: cell-based, influenza
# A/Anhui/01/2013 (H7N9) = type: cell-based, influenza; conditions: A549 cells, 10 μM for 1 hour before infection, 1 MOI H7N9, 24 hours post infection, titrated on MDCK cells
# influenza virus [3] = conditions: in vitro; cited from earlier work
# influenza virus [4] = conditions: in vivo; cited from earlier work
smiles,measurement,setting,value
O=C(NCCN1CCC2(CC1)C(=O)NCN2c1cccc(F)c1)c1ccc2ccccc2c1 [compound 3],viral reproduction (TCID50),[1],significantly lowered viral reproduction
same,viral reproduction (TCID50),[2],significantly lowered viral reproduction
same,viral reproduction (TCID50),A/Anhui/01/2013 (H7N9),significantly lowered viral reproduction
same,cellular toxicity in microscopic image,A549 cells,significant cellular toxicity
same,viral entry,influenza virus [3],delayed viral entry
same,viral titers,influenza virus [3],reduced viral titers
same,survival,influenza virus [4],increased survival
same,viral titer,influenza virus [4],reduced viral titer
